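A five-concentration, 48-hour dose response in 96-well plates underlies each endpoint, interpolated linearly between surrounding concentrations. GI50: concentration for 50% inhibition of growth. TGI denotes the concentration required for complete inhibition of growth.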
Assays:
Test in all cases: NCI-60 cell line screen, 48 h
MOLT-4 leukemia = system: MOLT-4 leukemia
RXF 393 renal = system: RXF 393 renal
MDA-MB-435 = system: MDA-MB-435
HOP-62 NSCLC = system: HOP-62 NSCLC
NCI-H226 lung = system: NCI-H226 lung
SNB-19 CNS = system: SNB-19 CNS
RPMI-8226 leukemia = system: RPMI-8226 leukemia
OVCAR-3 ovarian = system: OVCAR-3 ovarian
A549 NSCLC = system: A549 NSCLC
SF-295 CNS = system: SF-295 CNS
SK-MEL-28 melanoma = system: SK-MEL-28 melanoma
OVCAR-8 ovarian = system: OVCAR-8 ovarian
PC-3 prostate = system: PC-3 prostate
SW-620 colon = system: SW-620 colon
K-562 leukemia = system: K-562 leukemia
EKVX NSCLC = system: EKVX NSCLC
SK-MEL-5 melanoma = system: SK-MEL-5 melanoma
UACC-257 melanoma = system: UACC-257 melanoma
U251 CNS = system: U251 CNS
HS 578T breast = system: HS 578T breast
HL-60(TB) leukemia = system: HL-60(TB) leukemia
COLO 205 colon = system: COLO 205 colon
NCI-H522 lung = system: NCI-H522 lung
OVCAR-5 ovarian = system: OVCAR-5 ovarian
HCT-15 colon = system: HCT-15 colon
HCT-116 colon = system: HCT-116 colon
SK-OV-3 ovarian = system: SK-OV-3 ovarian
LOX IMVI melanoma = system: LOX IMVI melanoma
SF-539 CNS = system: SF-539 CNS
NCI-H460 lung = system: NCI-H460 lung
786-0 renal = system: 786-0 renal
SR leukemia = system: SR leukemia
NCI/ADR-RES ovarian = system: NCI/ADR-RES ovarian
HOP-92 NSCLC = system: HOP-92 NSCLC
SK-MEL-2 melanoma = system: SK-MEL-2 melanoma
MDA-MB-231 breast = system: MDA-MB-231 breast
A498 renal = system: A498 renal
OVCAR-4 ovarian = system: OVCAR-4 ovarian
IGROV1 ovarian = system: IGROV1 ovarian
UACC-62 melanoma = system: UACC-62 melanoma
M14 melanoma = system: M14 melanoma
DU-145 prostate = system: DU-145 prostate
BT-549 breast = system: BT-549 breast
SN12C renal = system: SN12C renal
UO-31 renal = system: UO-31 renal
MCF7 breast = system: MCF7 breast
ACHN renal = system: ACHN renal
HT29 colon = system: HT29 colon
SF-268 CNS = system: SF-268 CNS
SNB-75 CNS = system: SNB-75 CNS
NCI-H23 lung = system: NCI-H23 lung
CAKI-1 renal = system: CAKI-1 renal
HCC-2998 colon = system: HCC-2998 colon
TK-10 renal = system: TK-10 renal
CCRF-CEM leukemia = system: CCRF-CEM leukemia
MALME-3M melanoma = system: MALME-3M melanoma

## Clc1ccc(-c2nc(-c3ccccc3)cn3ccnc23)cc1
MOLT-4 leukemia
  GI50: 5.89 µM
  TGI: > 100 µM
RXF 393 renal
  GI50: 2.72 µM
  TGI: 28.6 µM
MDA-MB-435
  GI50: 1.43 µM
  TGI: 7.52 µM
HOP-62 NSCLC
  GI50: 16.1 µM
  TGI: 52.5 µM
NCI-H226 lung
  GI50: 74.7 µM
  TGI: > 100 µM
SNB-19 CNS
  GI50: 25.6 µM
  TGI: > 100 µM
RPMI-8226 leukemia
  GI50: 3.44 µM
  TGI: 31.2 µM
OVCAR-3 ovarian
  GI50: 1.82 µM
  TGI: 16.8 µM
A549 NSCLC
  GI50: 11 µM
  TGI: 29 µM
SF-295 CNS
  GI50: 3.1 µM
  TGI: 16.7 µM
SK-MEL-28 melanoma
  GI50: 14.9 µM
  TGI: 58.3 µM
OVCAR-8 ovarian
  GI50: 20.6 µM
  TGI: 57.2 µM
PC-3 prostate
  GI50: 14.2 µM
  TGI: 53.7 µM
SW-620 colon
  GI50: 4.75 µM
  TGI: 41.1 µM
K-562 leukemia
  GI50: 2.65 µM
  TGI: > 100 µM
EKVX NSCLC
  GI50: 10 µM
  TGI: 48.8 µM
SK-MEL-5 melanoma
  GI50: 7.3 µM
  TGI: 27.2 µM
UACC-257 melanoma
  GI50: 20 µM
  TGI: 46.5 µM
U251 CNS
  GI50: 6.61 µM
  TGI: 19.9 µM
HS 578T breast
  TGI: 17 µM
HL-60(TB) leukemia
  GI50: 5.05 µM
  TGI: > 100 µM
COLO 205 colon
  GI50: 18.6 µM
  TGI: > 100 µM
NCI-H522 lung
  GI50: > 100 µM
  TGI: > 100 µM
OVCAR-5 ovarian
  GI50: 15.7 µM
  TGI: 44.7 µM
HCT-15 colon
  GI50: 1.8 µM
  TGI: 18 µM
HCT-116 colon
  GI50: 6.39 µM
  TGI: 21.5 µM
SK-OV-3 ovarian
  GI50: 32 µM
  TGI: > 100 µM
LOX IMVI melanoma
  GI50: 5.1 µM
  TGI: 19.5 µM
SF-539 CNS
  GI50: 11.7 µM
  TGI: 31.8 µM
NCI-H460 lung
  GI50: 20.2 µM
  TGI: > 100 µM
786-0 renal
  GI50: 14 µM
  TGI: 37.3 µM
SR leukemia
  GI50: 0.627 µM
  TGI: > 100 µM
NCI/ADR-RES ovarian
  GI50: 6.53 µM
  TGI: 25.9 µM
HOP-92 NSCLC
  GI50: 11.1 µM
  TGI: 32.7 µM
SK-MEL-2 melanoma
  GI50: 53.4 µM
  TGI: > 100 µM
MDA-MB-231 breast
  GI50: 12.3 µM
  TGI: 55.5 µM
A498 renal
  GI50: 0.836 µM
  TGI: 16.1 µM
OVCAR-4 ovarian
  GI50: 14.6 µM
  TGI: 51.3 µM
IGROV1 ovarian
  GI50: 15.5 µM
  TGI: > 100 µM
UACC-62 melanoma
  GI50: 17.7 µM
  TGI: 70 µM
M14 melanoma
  GI50: 10.6 µM
  TGI: 27.4 µM
DU-145 prostate
  GI50: 11.9 µM
  TGI: 34.9 µM
BT-549 breast
  GI50: 11.3 µM
  TGI: 34.3 µM
SN12C renal
  GI50: 21.3 µM
  TGI: > 100 µM
UO-31 renal
  GI50: 20.2 µM
  TGI: > 100 µM
MCF7 breast
  GI50: 7.16 µM
  TGI: > 100 µM
ACHN renal
  GI50: 11.4 µM
  TGI: 26.1 µM
HT29 colon
  GI50: 7.45 µM
  TGI: 56.7 µM
SF-268 CNS
  GI50: 10.6 µM
  TGI: 33 µM
SNB-75 CNS
  GI50: 13 µM
  TGI: 72 µM
NCI-H23 lung
  GI50: 12.5 µM
  TGI: 36.4 µM
CAKI-1 renal
  GI50: 1.49 µM
  TGI: 17.7 µM

## N=c1c2ccccc2nc2oc3ccccc3n12
MDA-MB-435
  TGI: > 100 µM
HOP-62 NSCLC
  TGI: 88.2 µM
HCC-2998 colon
  TGI: > 100 µM
SNB-19 CNS
  TGI: > 100 µM
RPMI-8226 leukemia
  TGI: > 100 µM
A549 NSCLC
  TGI: > 100 µM
SF-295 CNS
  TGI: > 100 µM
OVCAR-8 ovarian
  TGI: > 100 µM
PC-3 prostate
  TGI: > 100 µM
SW-620 colon
  TGI: > 100 µM
K-562 leukemia
  TGI: > 100 µM
EKVX NSCLC
  TGI: 29.9 µM
SK-MEL-5 melanoma
  TGI: 69.5 µM
UACC-257 melanoma
  TGI: > 100 µM
HS 578T breast
  TGI: 60.3 µM
TK-10 renal
  TGI: 87.3 µM
HL-60(TB) leukemia
  TGI: > 100 µM
COLO 205 colon
  TGI: > 100 µM
OVCAR-5 ovarian
  TGI: > 100 µM
HCT-15 colon
  TGI: > 100 µM
HCT-116 colon
  TGI: > 100 µM
SK-OV-3 ovarian
  TGI: > 100 µM
LOX IMVI melanoma
  TGI: > 100 µM
SF-539 CNS
  TGI: > 100 µM
NCI/ADR-RES ovarian
  TGI: > 100 µM
HOP-92 NSCLC
  TGI: 80.6 µM
SK-MEL-2 melanoma
  TGI: > 100 µM
A498 renal
  TGI: > 100 µM
OVCAR-4 ovarian
  TGI: 61.4 µM
IGROV1 ovarian
  TGI: > 100 µM
UACC-62 melanoma
  TGI: > 100 µM
BT-549 breast
  TGI: > 100 µM
SN12C renal
  TGI: > 100 µM
UO-31 renal
  TGI: > 100 µM
CCRF-CEM leukemia
  TGI: > 100 µM
MCF7 breast
  TGI: > 100 µM
MALME-3M melanoma
  TGI: > 100 µM
ACHN renal
  TGI: > 100 µM
HT29 colon
  TGI: > 100 µM
SF-268 CNS
  TGI: 28 µM
NCI-H23 lung
  TGI: > 100 µM
CAKI-1 renal
  TGI: > 100 µM
